Reference: PubChem BioAssay AID330 (DTP/NCI, 2004)
“And” between values parts separate entries of the source, which are not always exact repeats. Equal values may be shown once. Inconclusive results and toxic doses are left out.

Tested on: P388 leukemia ip, CD2F1 mice, survival T/C
Assay: NCI In Vivo Anticancer Drug Screen. Data for tumor model P388 Leukemia (intraperitoneal) in CD2F1 (CDF1) mice
Conditions: endpoint: median survival time, higher = longer survival
How it was run: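 Mice carrying the transplanted tumor received test compound or vehicle. Survival was recorded in each group, and the value is the treated-group measurement divided by that of the vehicle-treated control group.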

For `COc1cccc2c1C(=O)c1c(O)c3c(c(O)c1C2=O)CC(O)(C(=O)CO)CC3OC1CC(N)C(O)C(C)O1` (configuration not stated), the T/C (dose: 0.03 mg/kg/injection, schedule: Q04DX003 (ip), vehicle: other) was 104 % of control, the T/C (dose: 0.05 mg/kg/injection, schedule: Q04DX003 (ip), vehicle: other) was 104 % of control and the T/C (dose: 0.05 mg/kg/injection, schedule: Q04DX003 (ip), vehicle: saline) was 110 % of control. The T/C (dose: 0.08 mg/kg/injection, schedule: Q04DX003 (ip), vehicle: other) was 115 % of control, the T/C (dose: 0.1 mg/kg/injection, schedule: Q04DX003 (ip), vehicle: other) was 98 % of control and the T/C (dose: 0.12 mg/kg/injection, schedule: Q04DX003 (ip), vehicle: other) was 122 % of control. The T/C (dose: 0.3 mg/kg/injection, schedule: Q04DX003 (ip), vehicle: other) was 112 % of control, the T/C (dose: 0.38 mg/kg/injection, schedule: Q01DX009 (ip), vehicle: water) was 150 % of control and the T/C (dose: 0.5 mg/kg/injection, schedule: Q04DX003 (ip), vehicle: other) was 100 % of control. For the same compound, the T/C (dose: 0.6 mg/kg/injection, schedule: Q04DX003 (ip), vehicle: saline) was 154 % of control, the T/C (dose: 0.75 mg/kg/injection, schedule: Q01DX009 (ip), vehicle: water) was 159 % of control and the T/C (dose: 1.0 mg/kg/injection, schedule: Q04DX003 (ip), vehicle: other) was 100 % of control. The T/C (dose: 1.0 mg/kg/injection, schedule: Q04DX003 (ip), vehicle: saline) was 110 % of control and 106 % of control, the T/C (dose: 1.13 mg/kg/injection, schedule: Q04DX003 (ip), vehicle: water) was 120 % of control and the T/C (dose: 1.3 mg/kg/injection, schedule: Q04DX003 (ip), vehicle: other) was 152 % of control. The T/C (dose: 1.3 mg/kg/injection, schedule: Q04DX003 (ip), vehicle: saline) was 156 % of control, the T/C (dose: 1.5 mg/kg/injection, schedule: Q01DX009 (ip), vehicle: water) was 165 % of control and the T/C (dose: 1.56 mg/kg/injection, schedule: Q04DX003 (ip), vehicle: saline) was 163 % of control. The T/C (dose: 1.9 mg/kg/injection, schedule: Q04DX003 (ip), vehicle: other) was 153 % of control, the T/C (dose: 1.9 mg/kg/injection, schedule: Q04DX003 (ip), vehicle: saline) was 156 % of control and the T/C (dose: 2.0 mg/kg/injection, schedule: Q04DX003 (ip), vehicle: other) was 97 % of control. For the same compound, the T/C (dose: 2.0 mg/kg/injection, schedule: Q04DX003 (ip), vehicle: saline) was 113 % of control and 116 % of control, the T/C (dose: 2.25 mg/kg/injection, schedule: Q04DX003 (ip), vehicle: water) was 121 % of control and the T/C (dose: 2.8 mg/kg/injection, schedule: Q04DX003 (ip), vehicle: other) was 169 % of control. The T/C (dose: 2.8 mg/kg/injection, schedule: Q04DX003 (ip), vehicle: saline) was 182 % of control, the T/C (dose: 2.9 mg/kg/injection, schedule: Q01DX009 (ip), vehicle: saline) was 104 % of control and the T/C (dose: 3.0 mg/kg/injection, schedule: Q01DX009 (ip), vehicle: water) was 158 % of control. The T/C (dose: 3.0 mg/kg/injection, schedule: Q04DX003 (ip), vehicle: water) was 114 % of control, the T/C (dose: 3.12 mg/kg/injection, schedule: Q04DX003 (ip), vehicle: saline) was 170 % of control and the T/C (dose: 3.13 mg/kg/injection, schedule: Q01DX009 (ip), vehicle: water) was 163 % of control. For the same compound, the T/C (dose: 3.13 mg/kg/injection, schedule: Q04DX003 (ip), vehicle: other) was 118 % of control, the T/C (dose: 4.0 mg/kg/injection, schedule: Q04DX003 (ip), vehicle: other) was 115 % of control and the T/C (dose: 4.0 mg/kg/injection, schedule: Q04DX003 (ip), vehicle: saline) was 119 % of control. For the same compound, the T/C (dose: 4.2 mg/kg/injection, schedule: Q04DX003 (ip), vehicle: other) was 179 % of control, the T/C (dose: 4.2 mg/kg/injection, schedule: Q04DX003 (ip), vehicle: saline) was 180 % of control and the T/C (dose: 5.8 mg/kg/injection, schedule: Q01DX009 (ip), vehicle: saline) was 124 % of control. The T/C (dose: 6.0 mg/kg/injection, schedule: Q01DX009 (ip), vehicle: water) was 183 % of control, the T/C (dose: 6.25 mg/kg/injection, schedule: Q01DX009 (ip), vehicle: water) was 200 % of control and the T/C (dose: 6.25 mg/kg/injection, schedule: Q04DX003 (ip), vehicle: other) was 120 % of control. The T/C (dose: 6.25 mg/kg/injection, schedule: Q04DX003 (ip), vehicle: saline) was 170 % of control, the T/C (dose: 6.3 mg/kg/injection, schedule: Q04DX003 (ip), vehicle: other) was 179 % of control and the T/C (dose: 6.3 mg/kg/injection, schedule: Q04DX003 (ip), vehicle: saline) was 168 % of control. The T/C (dose: 7.5 mg/kg/injection, schedule: Q04DX003 (ip), vehicle: clinical formulation) was 161 % of control, the T/C (dose: 8.0 mg/kg/injection, schedule: Q04DX003 (ip), vehicle: saline) was 109 % of control and the T/C (dose: 9.0 mg/kg/injection, schedule: Q04DX003 (ip), vehicle: water) was 121 % of control. The T/C (dose: 9.5 mg/kg/injection, schedule: Q04DX003 (ip), vehicle: other) was 179 % of control, the T/C (dose: 9.5 mg/kg/injection, schedule: Q04DX003 (ip), vehicle: saline) was 208 % of control and the T/C (dose: 10.0 mg/kg/injection, schedule: Q04DX003 (ip), vehicle: water) was 112 % of control. The T/C (dose: 12.0 mg/kg/injection, schedule: Q01DX009 (ip), vehicle: water) was 204 % of control, the T/C (dose: 12.0 mg/kg/injection, schedule: Q04DX003 (ip), vehicle: water) was 116 % of control and the T/C (dose: 12.5 mg/kg/injection, schedule: Q01DX009 (ip), vehicle: water) was 229 % of control. The T/C (dose: 14.2 mg/kg/injection, schedule: Q04DX003 (ip), vehicle: other) was 198 % of control, the T/C (dose: 14.2 mg/kg/injection, schedule: Q04DX003 (ip), vehicle: saline) was 193 % of control and the T/C (dose: 15.0 mg/kg/injection, schedule: Q04DX003 (ip), vehicle: clinical formulation) was 152 % of control. The T/C (dose: 16.0 mg/kg/injection, schedule: Q04DX003 (ip), vehicle: saline) was 119 % of control, the T/C (dose: 21.3 mg/kg/injection, schedule: Q04DX003 (ip), vehicle: other) was 207 % of control and the T/C (dose: 21.3 mg/kg/injection, schedule: Q04DX003 (ip), vehicle: saline) was 86 % of control. For the same compound, the T/C (dose: 22.5 mg/kg/injection, schedule: Q04DX003 (ip), vehicle: water) was 109 % of control and 115 % of control, the T/C (dose: 23.4 mg/kg/injection, schedule: Q01DX009 (ip), vehicle: saline) was 123 % of control and 217 % of control and the T/C (dose: 25.0 mg/kg/injection, schedule: Q01DX009 (ip), vehicle: water) was 220 % of control. The T/C (dose: 25.0 mg/kg/injection, schedule: Q04DX003 (ip), vehicle: saline) was 98 % of control, the T/C (dose: 32.0 mg/kg/injection, schedule: Q04DX003 (ip), vehicle: other) was 160 % of control and the T/C (dose: 32.0 mg/kg/injection, schedule: Q04DX003 (ip), vehicle: saline) was 172 % of control. The T/C (dose: 36.0 mg/kg/injection, schedule: Q04DX003 (ip), vehicle: water) was 163 % of control, the T/C (dose: 44.0 mg/kg/injection, schedule: Q04DX003 (ip), vehicle: water) was 110 % of control and the T/C (dose: 45.0 mg/kg/injection, schedule: Q04DX003 (ip), vehicle: water) was 124 % of control. For the same compound, the T/C (dose: 48.0 mg/kg/injection, schedule: Q04DX003 (ip), vehicle: other) was 87 % of control, the T/C (dose: 48.0 mg/kg/injection, schedule: Q04DX003 (ip), vehicle: water) was 175 % of control and 294 % of control and the T/C (dose: 50.0 mg/kg/injection, schedule: Q01DX009 (ip), vehicle: water) was 117 % of control. For the same compound, the T/C (dose: 50.0 mg/kg/injection, schedule: Q04DX003 (ip), vehicle: other) was 161 % of control, the T/C (dose: 64.0 mg/kg/injection, schedule: Q04DX003 (ip), vehicle: saline) was 167 % of control and 153 % of control and the T/C (dose: 72.0 mg/kg/injection, schedule: Q04DX003 (ip), vehicle: other) was 93 % of control. For the same compound, the T/C (dose: 72.0 mg/kg/injection, schedule: Q04DX003 (ip), vehicle: water) was 196 % of control, the T/C (dose: 80.0 mg/kg/injection, schedule: Q04DX003 (ip), vehicle: water) was 118 % of control and the T/C (dose: 90.0 mg/kg/injection, schedule: Q04DX003 (ip), vehicle: water) was 159 % of control and 174 % of control. The T/C (dose: 108.0 mg/kg/injection, schedule: Q04DX003 (ip), vehicle: other) was 88 % of control, the T/C (dose: 108.0 mg/kg/injection, schedule: Q04DX003 (ip), vehicle: water) was 163 % of control and the T/C (dose: 128.0 mg/kg/injection, schedule: Q04DX003 (ip), vehicle: other) was 182 % of control. The T/C (dose: 128.0 mg/kg/injection, schedule: Q04DX003 (ip), vehicle: saline) was 204 % of control and 184 % of control, the T/C (dose: 160.0 mg/kg/injection, schedule: Q04DX003 (ip), vehicle: water) was 95 % of control and the T/C (dose: 180.0 mg/kg/injection, schedule: Q04DX003 (ip), vehicle: water) was 168 % of control. The T/C (dose: 256.0 mg/kg/injection, schedule: Q04DX003 (ip), vehicle: other) was 175 % of control, the T/C (dose: 256.0 mg/kg/injection, schedule: Q04DX003 (ip), vehicle: saline) was 110 % of control and 213 % of control and the T/C (dose: 267.0 mg/kg/injection, schedule: Q04DX003 (ip), vehicle: water) was 109 % of control. For the same compound, the T/C (dose: 360.0 mg/kg/injection, schedule: Q04DX003 (ip), vehicle: water) was 97 % of control, the T/C (dose: 400.0 mg/kg/injection, schedule: Q04DX003 (ip), vehicle: water) was 99 % of control and the T/C (dose: 512.0 mg/kg/injection, schedule: Q04DX003 (ip), vehicle: saline) was 90 % of control.
